Source: the supplement of paper PMC11061612

Experiments:
Experiment in all cases: combination Emax (second highest fraction inhibited in the dose matrix, 72 h); higher = more inhibition; extreme values may be limits of the assay
[1] = test system: NCI-H1703 (Squamous Cell Lung Carcinoma)
In short: (§1)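 Bliss excess equals the observed combination effect minus the expected value EA + EB − EA·EB, where EA and EB are the effects of each agent alone. Combination Emax is the second-highest inhibition within the matrix. Inhibition was scaled from CellTiter-Glo 2.0 luminescence, with 0 set by vehicle wells and 1 by blank wells, after 72 hours of two-drug dosing of cells plated in 1536-well plates.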

[2] = test system: HCC1395 (Breast Carcinoma)
In short: as §1

[3] = test system: JVM-2 (B-Cell Non-Hodgkin's Lymphoma)
In short: as §1

[4] = test system: CA46 (Burkitt's Lymphoma)
In short: as §1

[5] = test system: EW-16 (Ewing's Sarcoma)
In short: as §1

[6] = test system: LU-165 (Small Cell Lung Carcinoma)
In short: as §1

[7] = test system: SW620 (Colorectal Carcinoma)
In short: as §1

[8] = test system: NCI-H716 (Colorectal Carcinoma)
In short: as §1

[9] = test system: DMS-53 (Small Cell Lung Carcinoma)
In short: as §1

[10] = test system: A101D (Melanoma)
In short: as §1

[11] = test system: CAL-27 (Oral Cavity Carcinoma)
In short: as §1

[12] = test system: NCI-H2228 (Lung Adenocarcinoma)
In short: as §1

[13] = test system: PEO1 (Ovarian Carcinoma)
In short: as §1

[14] = test system: KYSE-140 (Esophageal Squamous Cell Carcinoma)
In short: as §1

[15] = test system: KP-N-YN (Neuroblastoma)
In short: as §1

[16] = test system: KYSE-220 (Esophageal Squamous Cell Carcinoma)
In short: as §1

[17] = test system: AU565 (Breast Carcinoma)
In short: as §1

[18] = test system: WM1552C (Melanoma)
In short: as §1

[19] = test system: 769-P (Kidney Carcinoma)
In short: as §1

[20] = test system: SK-HEP-1 (Hepatocellular Carcinoma)
In short: as §1

Row | SMILES | combination Emax [1] | combination Emax [2] | combination Emax [3] | combination Emax [4] | combination Emax [5] | combination Emax [6] | combination Emax [7] | combination Emax [8] | combination Emax [9] | combination Emax [10] | combination Emax [11] | combination Emax [12] | combination Emax [13] | combination Emax [14] | combination Emax [15] | combination Emax [16] | combination Emax [17] | combination Emax [18] | combination Emax [19] | combination Emax [20]
1 | Cc1c2c(nn1C)CSCc1cc(n(C)n1)CSc1cc(c3ccccc3c1)OCCCc1c(C(=O)O)n(C)c3c-2c(Cl)ccc13 [AZD5991] + C=CCn1c(=O)c2cnc(Nc3ccc(N4CCN(C)CC4)cc3)nc2n1-c1cccc(C(C)(C)O)n1 [AZD1775] (first compound max 1 µM, partner max 1 µM) | 0.954 | 0.88 | 0.966 | 0.633 | 0.507 | 0.441 | 0.65 | 0.611 | 0.684 | 1 | 0.972 | 0.55 | 0.397 | 0.905 | 0.912 | 0.848 | 1 | 0.779 | 0.858 | 0.35
2 | C[C@@H]1COCCN1c1cc(C2([S@](C)(=N)=O)CC2)nc(-c2ccnc3[nH]ccc23)n1 [AZD6738] + O=C(c1cc(Cc2n[nH]c(=O)c3ccccc23)ccc1F)N1CCN(C(=O)C2CC2)CC1 [Olaparib] (first compound max 10 µM, 7x7, partner max 10 µM) | 0.847 | 0.852 | 0.836 | 0.412 | 0.808 | 0.309 | 0.57 | 0.468 | 0.148 | 0.661 | 0.793 | 0.523 | 0.585 | 0.744 | 0.76 | 0.808 | 0.449 | 0.679 | 0.756 | 0.498
3 | Cn1cnc2c(F)c(Nc3ccc(Br)cc3Cl)c(C(=O)NOCCO)cc21 [Selumetinib] + CCN(CCO)CCCOc1ccc2c(Nc3cc(CC(=O)Nc4cccc(F)c4)[nH]n3)ncnc2c1 [AZD2811] (first compound max 10 µM, 7x7, partner max 1 µM) | 0.472 | 0.212 | 0.633 | 0.312 | 0.551 | 0.158 | 0.863 | 0.428 | 0.158 | 0.596 | 0.611 | 0.296 | 0.29 | 0.294 | 0.581 | 0.52 | 0.2 | 0.439 | 0.356 | 0.362
4 | COc1nnc2ccc(N3CCC(c4ccc(OCCN5CCN(C)C(=O)[C@H]5C)cc4)CC3)nn12 [AZD5153] + Cc1c2c(nn1C)CSCc1cc(n(C)n1)CSc1cc(c3ccccc3c1)OCCCc1c(C(=O)O)n(C)c3c-2c(Cl)ccc13 [AZD5991] (first compound max 1 µM, 7x7, partner max 1 µM) | 0.966 | 0.817 | 0.711 | 0.64 | 0.486 | 0.65 | 0.512 | 0.817 | 0.612 | 0.924 | 1 | 0.372 | 0.432 | 0.603 | 0.449 | 0.842 | 1 | 0.888 | 0.727 | 0.583
5 | CC1(C)CCC(CN2CCN(c3ccc(C(=O)NS(=O)(=O)c4ccc(NCC5CCOCC5)c([N+](=O)[O-])c4)c(Oc4cnc5[nH]ccc5c4)c3)CC2)=C(c2ccc(Cl)cc2)C1 [Venetoclax] + CCN(CCO)CCCOc1ccc2c(Nc3cc(CC(=O)Nc4cccc(F)c4)[nH]n3)ncnc2c1 [AZD2811] (first compound max 1 µM, 7x7, partner max 1 µM) | 0.523 | 0.639 | 0.681 | 0.0318 | 0.714 | 0.161 | 0.229 | 0.198 | 0.482 | 0.477 | 0.43 | 0.253 | 0.252 | 0.367 | 0.913 | 0.299 | 0.181 | 0.464 | 0.204 | 0.27
6 | CC1(C)CCC(CN2CCN(c3ccc(C(=O)NS(=O)(=O)c4ccc(NCC5CCOCC5)c([N+](=O)[O-])c4)c(Oc4cnc5[nH]ccc5c4)c3)CC2)=C(c2ccc(Cl)cc2)C1 [Venetoclax] + C[C@@H](Nc1cc(F)cc(F)c1)c1cc(C(=O)N(C)C)cc2c(=O)cc(N3CCOCC3)oc12 [AZD8186] (first compound max 1 µM, 7x7, partner max 3 µM) | 0.422 | 0.701 | 0.661 | 0.533 | 0.17 | 0.219 | 0.0907 | 0.225 | 0.137 | 0.387 | 0.182 | 0.293 | 0.0947 | 0.222 | 0.569 | 0.141 | 0.225 | 0.365 | 0.297 | 0.131
7 | C=CCn1c(=O)c2cnc(Nc3ccc(N4CCN(C)CC4)cc3)nc2n1-c1cccc(C(C)(C)O)n1 [AZD1775] + O=C(c1cc(Cc2n[nH]c(=O)c3ccccc23)ccc1F)N1CCN(C(=O)C2CC2)CC1 [Olaparib] (first compound max 1 µM, partner max 10 µM) | 0.962 | 0.719 | 0.888 | 0.53 | 0.529 | 0.342 | 0.603 | 0.378 | 0.148 | 0.604 | 0.525 | 0.592 | 0.384 | 0.733 | 0.723 | 0.857 | 0.449 | 0.486 | 0.716 | 0.462
8 | COc1cccc2c1C(=O)c1c(O)c3c(c(O)c1C2=O)C[C@@](O)(C(=O)CO)C[C@@H]3O[C@H]1C[C@H](N)[C@H](O)[C@H](C)O1 [Doxorubicin] + Cc1cc2ncnn2cc1Nc1ncc2c(n1)n(C1CCOCC1)c(=O)n2C [AZD7648] (first compound max 1 µM, 7x7, partner max 10 µM) | 0.932 | 0.401 | 0.983 | 0.777 | 0.913 | 0.337 | 0.787 | 0.305 | 0.455 | 0.897 | 0.741 | 0.742 | 0.419 | 0.442 | 0.698 | 0.979 | 0.733 | 0.793 | 0.706 | 0.872
9 | Cc1c2c(nn1C)CSCc1cc(n(C)n1)CSc1cc(c3ccccc3c1)OCCCc1c(C(=O)O)n(C)c3c-2c(Cl)ccc13 [AZD5991] + C1CN(CCC1(C(=O)N[C@@H](CCO)C2=CC=C(C=C2)Cl)N)C3=NC=NC4=C3C=CN4 [Capivasertib] (first compound max 1 µM, 7x7, partner max 3 µM) | 0.847 | 0.911 | 0.801 | 0.351 | 0.195 | 0.261 | 0.16 | 0.401 | 0.442 | 1 | 0.996 | 0.426 | 0.207 | 0.862 | 0.256 | 0.252 | 1 | 0.929 | 0.146 | 0.334
10 | Cc1c2c(nn1C)CSCc1cc(n(C)n1)CSc1cc(c3ccccc3c1)OCCCc1c(C(=O)O)n(C)c3c-2c(Cl)ccc13 [AZD5991] + Cc1cc2ncnn2cc1Nc1ncc2c(n1)n(C1CCOCC1)c(=O)n2C [AZD7648] (first compound max 1 µM, 7x7, partner max 10 µM) | 0.891 | 0.545 | 0.68 | 0.281 | 0.299 | 0.265 | 0.213 | 0.228 | 0.554 | 0.997 | 0.985 | 0.354 | 0.178 | 0.401 | 0.228 | 0.218 | 1 | 0.71 | 0.32 | 0.295
11 | COc1cccc(OCCCN)c1-c1cc(Nc2cnc(C#N)cn2)n[nH]1 [Prexasertib] + CN(C)CCCOc1ccc(-c2ccc3ncc4c(c3c2)n(C2CCOCC2)c(=O)n4C)cn1 [AZD0156] (first compound max 1 µM, 7x7, partner max 1 µM) | 0.966 | 0.857 | 0.949 | 0.745 | 0.516 | 0.561 | 0.696 | 0.662 | 0.275 | 0.737 | 0.421 | 0.664 | 0.388 | 0.959 | 0.999 | 0.925 | 0.714 | 0.844 | 0.898 | 0.379
12 | NC1(C(=O)N[C@@H](CCO)c2ccc(Cl)cc2)CCN(c2ncnc3[nH]ccc23)CC1 [Capivasertib] + CC(=O)c1c(C)c2cnc(Nc3ccc(N4CCNCC4)cn3)nc2n(C2CCCC2)c1=O [Palbociclib] (first compound max 10 µM, 7x7, partner max 10 µM) | 0.609 | 0.395 | 0.823 | 0.411 | 0.44 | 0.429 | 0.473 | 0.49 | 0.25 | 0.581 | 0.69 | 0.506 | 0.415 | 0.78 | 0.301 | 0.712 | 0.505 | 0.427 | 0.773 | 0.673
